Reference: patent US6864286B2, “Inhibitors of the EGF-receptor tyrosine kinase and methods for their use” (Parker Hughes Institute, priority 1998, dated 2005)
Values belong to the molecule of their own block, whether it stands above or below them.

Columns and labels:
MDA-MB-231 cells = assay: MTT cytotoxicity assay, MDA-MB-231; format: cell-based; conditions: Homo sapiens, 36 hours, read-out: Cancer Cell Cytotoxicity IC50 MDA-MB-231
Procedure: (§1) In order to determine the cytotoxic activity of LFM and its analogs against breast cancer cells, cells in alpha-MEM supplemented with 10% (v/v) fetal calf serum were treated with various concentrations of the compounds for 24 hours at 37° C., washed twice in alpha-MEM, and then used in either MTT assays or in vitro invasion assays, as described hereinafter.
The cytotoxicity of various compounds against human breast cancer cell lines was analyzed using the MTT (3-[4,5-dimethylthiazol-2-yl]-2,5-diphenyl tetrazolium bromide) assay (Boehringer Mannheim Corp., Indianapolis, Ind.). Uckun F. M., et al. Clin. Cancer Res. 1998, 4, 901-912. Exponentially growing breast cancer cells were seeded into a 96-well plate at a density of 2.5×10^4 cells/well and incubated for 36 hours at 37° C. prior to drug exposure. On the day of treatment, culture medium was carefully aspirated from the wells and replaced with fresh medium containing the LFM analogs at concentrations ranging from 2 to 250 μM. Triplicate wells were used for each treatment. The cells were incubated with the various compounds for 36 hours at 37° C. in a humidified 5% CO2 atmosphere. To each well, 10 μl of MTT (0.5 mg/ml final concentration) was added and the plates were incubated at 37° C. for 4 hours to allow MTT to form formazan crystals by reacting with metabolically active cells. The formazan crystals were solubilized overnight at 37° C. in a solution containing 10% SDS in 0.01 M HCl. The absorbence of each well was measured in a microplate reader (Labsystems) at 540 nm and a reference wavelength of 690 nm.
To translate the absorbance A540 values into the number of live cells in each well, the A540 values were compared to those on standard A540-versus-cell number curves generated for each cell line. The percent survival was calculated using the formula: % survival=Live cell number[test]/Live cell number [control]×100. The IC50 values were calculated by non-linear regression analysis using an Graphpad Prism software version 2.0 (Graphpad Software, Inc., San Diego, Calif.).

[1] = biological target: T1, EGFR tyrosine kinase in MDA-MB-231 cells (Homo sapiens, UniProt P00533); assay: Cellular EGFR autophosphorylation, anti-phosphotyrosine Western blot; format: cell-based; conditions: 24 hour exposure
T1 construct: anti-EGFR immunoprecipitates from lysates of MDA-MB-231 human breast cancer cells; endogenous in cells; host or cells: MDA-MB-231 (ATCC HTB-26)
Procedure: For EGFR immune complex kinase assays, 24-hours after treatment with leflunomide analogs, MDA-MB-231 breast cancer cells were stimulated with 20 ng/mL EGF for 5 minutes, lysed in 1% Nonidet-P-40 buffer, and cell lysates were immunoprecipitated with an anti-EGFR antibody reactive with the sequence Ala^351-Asp^364 of the human EGFR (Upstate Biotechnology Inc. [UBI] Catalog # 05-104) (Uckun, F. M., et al. Clin. Can. Res. 1998, 4, 901). EGFR immune complexes were examined for tyrosine phosphorylation by Western blot analysis, as described by Uckun, F. M., et al. Clin. Can. Res. 1998, 4, 901. All anti-phosphotyrosine Western blots were subjected to densitometric scanning using the automated AMBIS system (Automated Microbiology System, Inc., San Diego, Calif.) and for each time point a % inhibition value was determined by comparing the density ratios of the tyrosine phosphorylated EGFR protein bands to those of the baseline sample and using the formula: % Inhibition=100−100×[Density of tyrosine phosphorylated EGFR band]test sample/[Density of tyrosine phosphorylated EGFR band]baseline control sample. The IC50 values were determined using an Inplot program (Graphpad Software, Inc., San Diego, Calif.).
The effects of LFM and LFM analogs on the enzymatic activity of the EGFR tyrosine kinase in breast cancer cells were also examined. […]

MDA-MB-361 cells = assay: In vitro clonogenic assay, MDA-MB-361; format: cell-based, human; conditions: 24 hour treatment; for inhibition at 0.1 µM / inhibition at 10 µM / inhibition at 100 µM: Homo sapiens
Procedure: as §1
After treatment with LFM analogs, cells were resuspended in clonogenic medium consisting of alpha-MEM supplemented with 0.9% methylcellulose, 30% fetal bovine serum, and 50 μM 2-mercaptoethanol. Cells were plated in duplicate Petri dishes at 100,000 cells/mL/dish and cultured in a humidified 5% CO2 incubator for 7 days. Cancer cell colonies were enumerated on a grid using an inverted phase microscope of high optical resolution (Uckun F. M., et al. Clin. Cancer Res. 1998, 4, 901-912; and Kuo). Results were expressed as % inhibition of clonogenic cells at a particular concentration of the test agent using the formula: % Inhibition=(1-Mean # of colonies [Test]/Mean # of colonies [Control])×100. Furthermore, the dose survival curves were constructed using the percent control survival (=Mean # of colonies[Test]/Mean # of colonies [Control]×100) results for each drug concentration as the data points and the IC50 values were calculated. The IC50 values were determined using an Prism Version II Inplot program (Graphpad Software, Inc., San Diego, Calif.).

T1 sequence (P00533 25-1210): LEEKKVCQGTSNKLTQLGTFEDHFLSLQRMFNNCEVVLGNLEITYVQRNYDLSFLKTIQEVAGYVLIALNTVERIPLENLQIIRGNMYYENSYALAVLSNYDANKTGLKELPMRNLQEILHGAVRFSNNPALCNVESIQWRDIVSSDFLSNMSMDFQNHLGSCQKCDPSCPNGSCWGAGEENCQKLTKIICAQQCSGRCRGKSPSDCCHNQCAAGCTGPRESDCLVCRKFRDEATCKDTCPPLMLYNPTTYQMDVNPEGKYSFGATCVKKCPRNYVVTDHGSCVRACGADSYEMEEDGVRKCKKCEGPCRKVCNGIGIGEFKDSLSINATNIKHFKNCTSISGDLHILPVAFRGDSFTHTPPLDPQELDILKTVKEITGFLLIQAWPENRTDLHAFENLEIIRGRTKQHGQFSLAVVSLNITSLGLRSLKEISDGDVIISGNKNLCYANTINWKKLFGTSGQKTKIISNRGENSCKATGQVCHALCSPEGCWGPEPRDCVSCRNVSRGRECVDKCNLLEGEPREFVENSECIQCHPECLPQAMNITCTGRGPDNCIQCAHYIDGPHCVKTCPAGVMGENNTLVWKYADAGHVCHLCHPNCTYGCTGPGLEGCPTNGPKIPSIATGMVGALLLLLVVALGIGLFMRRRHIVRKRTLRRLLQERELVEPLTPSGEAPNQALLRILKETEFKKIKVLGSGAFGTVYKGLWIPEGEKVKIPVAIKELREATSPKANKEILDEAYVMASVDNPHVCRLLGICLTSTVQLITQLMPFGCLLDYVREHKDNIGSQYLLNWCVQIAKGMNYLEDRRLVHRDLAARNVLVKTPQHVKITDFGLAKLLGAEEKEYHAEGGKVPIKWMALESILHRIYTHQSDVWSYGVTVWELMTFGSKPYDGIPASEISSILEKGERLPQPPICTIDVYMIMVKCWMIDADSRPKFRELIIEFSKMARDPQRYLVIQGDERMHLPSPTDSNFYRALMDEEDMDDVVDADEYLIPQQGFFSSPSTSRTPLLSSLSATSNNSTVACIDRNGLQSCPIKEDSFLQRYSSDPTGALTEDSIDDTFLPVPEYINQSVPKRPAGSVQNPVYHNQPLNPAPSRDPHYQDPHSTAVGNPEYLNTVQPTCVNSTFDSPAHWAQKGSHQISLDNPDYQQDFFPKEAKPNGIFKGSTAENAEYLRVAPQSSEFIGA

Compound: C/C(O)=C(\C#N)C(=O)Nc1ccc(OC(F)(F)F)cc1 [LFM-A12, α-Cyano-β-hydroxy-β-methyl-N-[4-(trifluoromethoxy)phenyl]-propenamide]
- IC50 (MDA-MB-231 cells): 53.4 µM
- tyrosine phosphorylation of the EGFR after EGF stimulation [1]: decreased tyrosine phosphorylation of the EGFR
- inhibition at 0.1 µM (MDA-MB-361 cells; MDA-MB-361, 0.1 μM): 32.4%
- inhibition at 10 µM (MDA-MB-361 cells; MDA-MB-361, 10 μM): 60.2%
- inhibition at 100 µM (MDA-MB-361 cells; MDA-MB-361, 100 μM): 87.3%
- Tumor Cell Colonies/10^5 Cells (MDA-MB-361 cells; MDA-MB-361, 0.1 μM): 746
- Tumor Cell Colonies/10^5 Cells (MDA-MB-361 cells; MDA-MB-361, 10 μM): 440
- Tumor Cell Colonies/10^5 Cells (MDA-MB-361 cells; MDA-MB-361, 100 μM): 140

- tyrosine phosphorylation of the EGFR after EGF stimulation [1]: to a lesser extent
Compound: CC(O)=C(C#N)C(=O)Nc1ccc(C(F)(F)F)cc1 [LFM, α-Cyano-β-hydroxy-β-methyl-N-[4-(trifluoromethyl)phenyl]-propenamide, reference compound]
- IC50 (MDA-MB-231 cells): 199 µM
- inhibition at 0.1 µM (MDA-MB-361 cells; MDA-MB-361, 0.1 μM): 27.3%
- inhibition at 10 µM (MDA-MB-361 cells; MDA-MB-361, 10 μM): 51.5%
- inhibition at 100 µM (MDA-MB-361 cells; MDA-MB-361, 100 μM): 82.3%
- Tumor Cell Colonies/10^5 Cells (MDA-MB-361 cells; MDA-MB-361, 0.1 μM): 803
- Tumor Cell Colonies/10^5 Cells (MDA-MB-361 cells; MDA-MB-361, 10 μM): 535
- Tumor Cell Colonies/10^5 Cells (MDA-MB-361 cells; MDA-MB-361, 100 μM): 196
